# Assay results from PubChem BioAssay (NCI).
#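 How tested: cells in 96-well plates exposed to compound for 48 hours at five concentrations. Abbreviation: GI50, concentration required for 50% inhibition of growth. TGI marks complete inhibition of growth.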
# How the values were obtained:
# Assay in all cases: NCI-60 cell line screen, 48 h
# TK-10 renal = tested on: TK-10 renal
# SNB-19 CNS = tested on: SNB-19 CNS
# SF-268 CNS = tested on: SF-268 CNS
# RXF 393 renal = tested on: RXF 393 renal
# COLO 205 colon = tested on: COLO 205 colon
# OVCAR-8 ovarian = tested on: OVCAR-8 ovarian
# 786-0 renal = tested on: 786-0 renal
# A549 NSCLC = tested on: A549 NSCLC
Compound,TGI (TK-10 renal),TGI (SNB-19 CNS),TGI (SF-268 CNS),TGI (RXF 393 renal),TGI (COLO 205 colon),TGI (OVCAR-8 ovarian),TGI (786-0 renal),TGI (A549 NSCLC),GI50 (TK-10 renal),GI50 (SNB-19 CNS),GI50 (SF-268 CNS),GI50 (RXF 393 renal),GI50 (COLO 205 colon),GI50 (OVCAR-8 ovarian),GI50 (786-0 renal),GI50 (A549 NSCLC)
COc1ccc(OC)c2cc(C3(C)SCCCS3)ccc12,> 100 µM,> 100 µM,> 100 µM,77 µM,> 100 µM,> 100 µM,> 100 µM,> 100 µM,–,–,–,–,–,–,–,–
C=CCN(N=O)C(=O)N(CCC)CCCCC(NC(C)=O)C(=O)NCc1ccccc1 (centres undefined),> 100 µM,> 100 µM,> 100 µM,> 100 µM,> 100 µM,> 100 µM,> 100 µM,> 100 µM,–,–,–,–,–,–,–,–
CSC(=S)NNC(=O)c1ccncc1,75.6 µM,53.1 µM,63.3 µM,31.8 µM,> 100 µM,40.6 µM,30.8 µM,> 100 µM,–,–,–,–,–,–,–,–
O=C(C=Nc1ccccc1C(=O)[O-])c1cccs1.O=C(C=Nc1ccccc1C(=O)[O-])c1cccs1.[Cu+2],> 100 µM,> 100 µM,> 100 µM,–,> 100 µM,> 100 µM,> 100 µM,> 100 µM,–,–,–,–,–,–,–,–
COC(=O)C1=CC2OC1(C)C1(CC1)C2=O (centres undefined),–,> 100 µM,43.3 µM,28.9 µM,33.5 µM,31.3 µM,31.8 µM,70 µM,–,–,–,–,–,–,–,–
Cc1ccc2[nH]c(=O)c(C(C#N)c3ccccc3)nc2c1 (centres undefined),> 100 µM,89.2 µM,> 100 µM,78.8 µM,54.8 µM,–,> 100 µM,> 100 µM,–,–,–,–,–,–,–,–
COC(=O)C(=O)C(C(=O)C(=O)Nc1cc([N+](=O)[O-])ccc1[N+](=O)[O-])c1nc2ccc(C(=O)c3ccccc3)cc2[nH]c1=O (centres undefined),–,> 100 µM,> 100 µM,–,> 100 µM,> 100 µM,> 100 µM,> 100 µM,–,–,–,–,–,–,–,–
COc1ccccc1NC(=O)C1=C(C)NC(C)=C(C(=O)Nc2ccccc2OC)C1c1ccccc1OC,> 100 µM,> 100 µM,> 100 µM,–,> 100 µM,> 100 µM,> 100 µM,> 100 µM,–,–,–,–,–,–,–,–
CC1OC(O)CC(OC(=O)c2ccccc2)C1OC(=O)c1ccccc1 (centres undefined),> 100 µM,> 100 µM,30 µM,39.3 µM,80.9 µM,31.6 µM,82.7 µM,> 100 µM,–,–,–,–,–,–,–,–
CC12CC3CC(C)(C1)CC(N=[N+]=[N-])(C3)C2,> 100 µM,> 100 µM,> 100 µM,–,> 100 µM,> 100 µM,> 100 µM,> 100 µM,–,–,–,–,–,–,–,–
CCOC(=O)C1=C(C)N(NC(=O)c2ccccc2)C2(O)CCCC12C(=O)OCC (centres undefined),–,> 100 µM,> 100 µM,> 100 µM,–,> 100 µM,> 100 µM,> 100 µM,–,–,–,–,–,–,–,–
CCC[CH2][Sn]([CH2]CCC)([S]C1=NCCS1)[S]C1=NCCS1,1.11 µM,1.12 µM,0.908 µM,0.301 µM,1.5 µM,1.6 µM,0.663 µM,3.55 µM,0.39 µM,0.3 µM,0.254 µM,0.0846 µM,0.331 µM,0.397 µM,0.22 µM,1.85 µM
COC(=O)C1C(=O)O[C@@H](c2ccc(OC)cc2OC)C1C(=O)OC (some centres undefined),> 100 µM,> 100 µM,> 100 µM,> 100 µM,> 100 µM,> 100 µM,> 100 µM,> 100 µM,–,–,–,–,–,–,–,–
Cn1c2cccc3nnc4cccc(c4c32)n1C,–,> 100 µM,> 100 µM,> 100 µM,> 100 µM,> 100 µM,> 100 µM,> 100 µM,–,–,–,–,–,–,–,–
COC(=O)C1=CC2OC13CC1CCC3(C2=O)C1(C)C (centres undefined),22.6 µM,52.3 µM,23.2 µM,25.8 µM,29.8 µM,23.8 µM,30.7 µM,92.7 µM,–,–,–,–,–,–,–,–
CC(=O)Nc1ccc(/C=C/C(=O)c2sc(C(N)=S)nc2C)cc1,> 100 µM,–,> 100 µM,> 100 µM,> 100 µM,> 100 µM,> 100 µM,> 100 µM,–,–,–,–,–,–,–,–
Cc1ccc(C2=NO[C@@H]3C(=O)N(c4ccc(Cc5ccc(N6C(=O)[C@H]7C(c8ccc(C)cc8)=NO[C@H]7C6=O)cc5)cc4)C(=O)[C@H]23)cc1,> 100 µM,–,> 100 µM,> 100 µM,> 100 µM,> 100 µM,> 100 µM,> 100 µM,–,–,–,–,–,–,–,–
CCCCCCCCCCCC(=O)OCC1OC(n2cc(F)c(=O)[nH]c2=O)C(N)C(O)C1O (centres undefined),–,> 100 µM,> 100 µM,> 100 µM,> 100 µM,> 100 µM,> 100 µM,> 100 µM,–,–,–,–,–,–,–,–
O=C(CC(=O)C(F)(F)F)c1csc2ccccc12,28.4 µM,> 100 µM,> 100 µM,–,> 100 µM,60.2 µM,> 100 µM,> 100 µM,–,–,–,–,–,–,–,–
Clc1ccc2nc(CCSCCc3nc4ccc(Cl)cc4[nH]3)[nH]c2c1,22.1 µM,–,–,38.6 µM,29 µM,28 µM,26.3 µM,24.9 µM,–,–,–,–,–,–,–,–
O=C(NCC#CCO)C(F)(F)F,> 100 µM,> 100 µM,> 100 µM,> 100 µM,–,> 100 µM,> 100 µM,> 100 µM,–,–,–,–,–,–,–,–
